# Like-named read-outs stand apart in the source and are kept apart here.
# Tests used:
# [1] = Chronic dietary toxicity in rats
# HT29 cells = assay: Inhibition of HT29 colon adenocarcinoma cell growth/proliferation; format: cell-based, human
# Procedure: We examined the effect of several of the terpenes on certain types of cell growth. […] Additionally, growth of HT29 (human colon adenocarcinoma) cells was inhibited by 80% by 1 mM perillyl alcohol.
# [2] = test system: CoQ9 and cholesterol synthesis; assay: Mevalonate metabolism: CoQ9 and cholesterol synthesis in NIH3T3 cells; format: cell-based, mouse; details: for activity at 1000 µM: Mus musculus, NIH3T3, 3 h, average of four experiments ± SD
# Procedure: Analysis of Mevalonate Metabolism. NIH3T3 cells were grown in Dulbecco's modified Eagle's medium supplemented with 10% calf serum. […] The cells were then trypsinized, washed and resuspended in phosphate-buffered saline. The protein concentrations were determined using a bicinchoninic acid protein assay (Shihabi, et al, Ann. Clin. Lab. Sci. 18:235-239, 1988). Samples containing equal amount of protein were spotted on TLC plates with or without acetone extraction (Maziere, et al, J. Biochem. Biophys. Methods 14:267-272, 1987.) The TLC plates were developed with hexane/diethyl ether/acetic acid (70:30:2, v/v) (Maziere, et al, Supra). Dry plates were analyzed for radioactivity using a phosphorimager (Molecular Dynamics).
# Labeling Cells with [^14 C(U)] Tyrosine. NIH3T3 cells were treated with 30 μM lovastatin for 18 hours and then incubated in fresh tyrosine deficient minimum essential medium (supplemented with 10% dialyzed fetal bovine serum) containing 400 μM mevalonic acid lactone (Sigma) and 14 μCi/ml [^14 C(U)] tyrosine (500 mCi/mmol) for 3 hours in the absence or presence of 1 mM perillyl alcohol. Cells were harvested and lipids were analyzed as described above.
# HPLC Analysis of Unsaponifiable Lipids. Cells were labeled with [2-^14 C] mevalonolactone as described above and then were saponified as described by Popjak et al, J. Lipid Res, 26:831-841, 1985. Unsaponifiable lipids were extracted with petroleum ether, dried and dissolved in chloroform methanol (1:1, v/v). Reverse phase HPLC using a Bio-Rad ODS-5S (25 cm×4 mm) column fitted with a Sigma hypersil ODS guard column was run isocratically with methanol/acetonitrile/water (72.5:22.5:5, v/v) at a flow rate of 0.8 ml/min. The effluent was monitored at 210 nm, the fractions were collected, and radioactivities were determined with a Beckman LS 6000IC Scintillation Counter.
# [3] = Effect of dietary perillyl alcohol on serum cholesterol and lipids in rats; format: in vivo, Wistar-Furth rat
# From the text: Twenty-one female, six-weeks-old, Wistar-Furth rats were divided into three different diet groups of seven rats each. One group was fed a control diet, one group was fed a 1% perillyl alcohol diet, and one group was fed a 2% perillyl alcohol diet. Rats from each diet group were matched into pair feeding groups.
# Rats in the control group were pair fed against rats in the 2% POH diet group. Rats in the 1% POH diet group were allowed to eat as much as they wanted. After one month, rats in the 1% POH diet group were also pair fed against rats in 2% POH group. After two months of feeding, rats in all groups were allowed to eat as much as they wanted. The rats were allowed to eat as much as they wanted because the diurnal rhythm of HMGCoA reductase activity might be related to food intake.
# The rats' body weights were measured twice a week. Perillyl alcohol diets were made once a week and replaced daily.
# […] About 1 ml blood was taken from each rat each time and collected in heparin (SIGMA) coated tube. For CoQ analysis, 0.5 ml blood was added to the CoQ6 standard. For cholesterol analysis the blood were spun down at 3,000 rpm for 10 minutes and the plasma were taken. By three months, all rats were killed.
# Total cholesterol, HDL cholesterol and triglyceride levels in the rats' plasma were measured using diagnostic kits from SIGMA according to manufacturer's instructions. LDL cholesterol levels were calculated by Friedewald's equation. […]
# [4] = Acute oral toxicity in rats; format: in vivo, Wistar-Furth rat; details: 1:1 sesame oil
# Procedure: When POH was given in an acute manner (a single oral dose, 1:1 mix with sesame oil, for 5 days), the following was observed: After 300 mg total POH dose, 2 out of 5 rats died within 24 hours. After a 200 mg total POH dose, 2 out of 5 rats died within 24 hours. After a 100 mg total POH dose, 5 out of 5 rats tolerated 5 days with weight loss.
smiles,measurement,setting,value
C=C(C)[C@@H]1CC=C(CO)CC1 [perillyl alcohol],weight change,"[1]; 0.5% POH diet, chronic",very small weight loss followed by weight gain
same,weight change,"[1]; 1.0% POH diet, chronic",very small weight loss followed by weight gain
same,tolerability,"[1]; 2.0% POH diet, chronic",tolerated with weight loss followed by weight gain
same,tolerability,"[1]; 2.5% POH diet, chronic",tolerated with weight loss observed
same,death,"[1]; 3.0% POH diet, chronic",2/5
same,maximum dose tolerated (% diet),"[1]; dietary, data not shown",2.5%
same,Toxicity,[1]; perillyl alcohol-fed rats,limited to weight loss
same,body weight versus controls,"[1]; perillyl alcohol-fed, FIG. 8",did not achieve weights similar to controls
same,"Rank order, inhibition of HT-29 tumor cell proliferation","HT29 cells; 1 = greatest inhibition, 5 = least inhibition",1
same,IC50,"HT29 cells; Homo sapiens, HT-29, read-out: IC50 HT29 tumor cell proliferation",50 µM
same,inhibition at 1000 µM,"HT29 cells; Homo sapiens, HT-29, read-out: growth inhibition of HT29 cells",80%
same,HT29 cell growth,HT29 cells; colon adenocarcinoma cells,regression of cell growth
same,CoQ9 labeled from [14C(U)] tyrosine,[2]; 1 mM perillyl alcohol,greatly reduced
same,activity at 1000 µM,"[2]; 1 mM perillyl alcohol, read-out: Cholesterol + Lathosterol synthesis (% of Control)",107 ± 16.5%
same,activity at 1000 µM,"[2]; 1 mM perillyl alcohol, read-out: Cholesterol synthesis (% of Control)",26.7 ± 4.7%
same,activity at 1000 µM,"[2]; 1 mM perillyl alcohol, read-out: CoQ9 synthesis (% of Control)",14.1 ± 4.6%
same,activity at 1000 µM,"[2]; 1 mM perillyl alcohol, read-out: Lathosterol synthesis (% of Control)",427 ± 130%
same,recovery of labeled CoQ9,[2]; cold control medium up to 6 hours post-labeling,labeled CoQ9 could not be observed
same,block of cholesterol synthesis on continued exposure,[2]; continually grown in 1 mM perillyl alcohol,maintained the block of cholesterol synthesis
same,conversion of labeled cholesterol back to lathosterol,[2]; reincubated in 1 mM perillyl alcohol after control medium,did not convert labeled cholesterol back to labeled lathosterol
same,neutral lipid metabolism changes in treated cells,"[2]; spot X = CoQ9, Y = cholesterol, Z = lathosterol",inhibition of two spots (X and Y) and the increased accumulation of a third spot (Z)
same,neutral lipid changes after [14C]squalene labeling,"[2]; spot Y = cholesterol, spot Z = lathosterol",inhibition of spot Y and the accumulation of spot Z
same,reversibility of block of cholesterol synthesis,"[2]; switched to control medium, 3 hour chase",Lathosterol was observed to be converted to cholesterol
same,Body Weight,[3]; 1% POH diet,207 ± 3 g
same,Heart Weight,[3]; 1% POH diet,0.57 ± 0.05 g
same,Liver Weight,[3]; 1% POH diet,6.1 ± 0.3 g
same,HDL Cholesterol,"[3]; 1% POH diet, Kill",37.6 ± 3.8 mg/dL
same,Total Cholesterol,"[3]; 1% POH diet, Kill",47.7 ± 4.3 mg/dL
same,Triglyceride,"[3]; 1% POH diet, Kill",29.8 ± 8.9 mg/dL
same,LDL Cholesterol,"[3]; 1% POH diet, Kill, Friedewald's equation",4.1 ± 2.4 mg/dL
same,HDL Cholesterol,"[3]; 1% POH diet, WK3",31.7 ± 2.3 mg/dL
same,Total Cholesterol,"[3]; 1% POH diet, WK3",45.9 ± 4.2 mg/dL
same,Triglyceride,"[3]; 1% POH diet, WK3",20.8 ± 5.2 mg/dL
same,LDL Cholesterol,"[3]; 1% POH diet, WK3, Friedewald's equation",10.1 ± 3.1 mg/dL
same,HDL Cholesterol,"[3]; 1% POH diet, WK6",33.1 ± 2.2 mg/dL
same,Total Cholesterol,"[3]; 1% POH diet, WK6",41.0 ± 3.0 mg/dL
same,Triglyceride,"[3]; 1% POH diet, WK6",29.5 ± 5.7 mg/dL
same,LDL Cholesterol,"[3]; 1% POH diet, WK6, Friedewald's equation",2.0 ± 1.4 mg/dL
same,HDL Cholesterol,"[3]; 1% POH diet, WK9",31.5 ± 2.6 mg/dL
same,Total Cholesterol,"[3]; 1% POH diet, WK9",43.2 ± 4.9 mg/dL
same,Triglyceride,"[3]; 1% POH diet, WK9",28.7 ± 5.7 mg/dL
same,LDL Cholesterol,"[3]; 1% POH diet, WK9, Friedewald's equation",6.0 ± 4.0 mg/dL
same,Body Weight,[3]; 2% POH diet,198 ± 6 g
same,Heart Weight,[3]; 2% POH diet,0.57 ± 0.05 g
same,Liver Weight,[3]; 2% POH diet,6.2 ± 0.5 g
same,HDL Cholesterol,"[3]; 2% POH diet, Kill",39.8 ± 4.0 mg/dL
same,Total Cholesterol,"[3]; 2% POH diet, Kill",52.8 ± 6.8 mg/dL
same,Triglyceride,"[3]; 2% POH diet, Kill",33.8 ± 14.9 mg/dL
same,LDL Cholesterol,"[3]; 2% POH diet, Kill, Friedewald's equation",6.2 ± 1.8 mg/dL
same,HDL Cholesterol,"[3]; 2% POH diet, WK3",31.4 ± 1.6 mg/dL
same,Total Cholesterol,"[3]; 2% POH diet, WK3",44.2 ± 3.7 mg/dL
same,Triglyceride,"[3]; 2% POH diet, WK3",17.2 ± 5.3 mg/dL
same,LDL Cholesterol,"[3]; 2% POH diet, WK3, Friedewald's equation",9.4 ± 3.0 mg/dL
same,HDL Cholesterol,"[3]; 2% POH diet, WK6",33.5 ± 3.6 mg/dL
same,Total Cholesterol,"[3]; 2% POH diet, WK6",41.2 ± 5.0 mg/dL
same,Triglyceride,"[3]; 2% POH diet, WK6",21.1 ± 5.7 mg/dL
same,LDL Cholesterol,"[3]; 2% POH diet, WK6, Friedewald's equation",3.4 ± 2.2 mg/dL
same,HDL Cholesterol,"[3]; 2% POH diet, WK9",30.7 ± 2.9 mg/dL
same,Total Cholesterol,"[3]; 2% POH diet, WK9",40.7 ± 3.3 mg/dL
same,Triglyceride,"[3]; 2% POH diet, WK9",18.4 ± 2.9 mg/dL
same,LDL Cholesterol,"[3]; 2% POH diet, WK9, Friedewald's equation",6.4 ± 1.2 mg/dL
same,LDL level versus HDL level,[3]; after 6 weeks of treatment,LDL level is reduced much more than the HDL level
same,Triglyceride levels,[3]; after 6 weeks of treatment,dramatically reduced
same,total cholesterol level,[3]; after 6 weeks of treatment,reduced
same,rats that tolerated 5 days with weight loss,[4]; 100 mg total POH dose,5 out of 5
same,rats died within 24 hours,[4]; 200 mg total POH dose,2 out of 5
same,rats died within 24 hours,[4]; 300 mg total POH dose,2 out of 5

# Source: US5470877A, “Uses of perillic acid methyl ester” (Wisconsin Alumni Research Foundation, priority 1994, dated 1995)
